{
  "source": "paper PMC7076710",
  "about": "“Synthesis, Identification, and Structure–Activity Relationship Analysis of GATA4 and NKX2-5 Protein–Protein Interaction Modulators” (Journal of Medicinal Chemistry, 2019)",
  "tested_on": "COS-1 cells",
  "experiment": "LDH assay (necrosis)",
  "assay_type": "cell-based",
  "data": [
    {"compound": "Cc1onc(-c2ccccc2)c1C(=O)N(C1=NC(C)CS1)c1ccc(Cl)cc1", "note": "(stereo not shown) [Compound 2]", "values": [
      {"measurement": "LDH.1µM", "setting": "COS-1 cells", "value": 1.6},
      {"measurement": "LDH.3µM", "setting": "COS-1 cells", "value": 1.4},
      {"measurement": "LDH.10µM", "setting": "COS-1 cells", "value": 1.08},
      {"measurement": "LDH.30µM", "setting": "COS-1 cells", "value": 1.02}
    ]},
    {"compound": "CCN(CC)c1ccc(NC(=O)c2cnsc2)cc1", "note": "[Compound 47s]", "values": [
      {"measurement": "LDH.1µM", "value": 3.18},
      {"measurement": "LDH.3µM", "value": 0.65},
      {"measurement": "LDH.10µM", "value": 1.08},
      {"measurement": "LDH.30µM", "value": 0.91}
    ]},
    {"compound": "CCN(CC)c1ccc(NC(=O)c2c(-c3ccccc3)noc2C)cc1", "note": "[Compound 1, N-[4-(Diethylamino)phenyl]-5-methyl-3-phenylisoxazole-4-carboxamide]", "values": [
      {"measurement": "LDH.1µM", "setting": "COS-1 cells", "value": 1.16},
      {"measurement": "LDH.3µM", "setting": "COS-1 cells", "value": 0.89},
      {"measurement": "LDH.10µM", "setting": "COS-1 cells", "value": -0.76},
      {"measurement": "LDH.30µM", "setting": "COS-1 cells", "value": -0.02}
    ]},
    {"compound": "Cc1onc(-c2ccccc2)c1COc1ccc(C(=O)OCCC#N)cc1", "note": "[Compound 35a, 2-Cyanoethyl 4-[(5-Methyl-3-phenylisoxazol-4-yl)methoxy]benzoate]", "values": [
      {"measurement": "LDH.1µM", "value": 0.51},
      {"measurement": "LDH.3µM", "value": 1.44},
      {"measurement": "LDH.10µM", "value": 1.72},
      {"measurement": "LDH.30µM", "value": 1}
    ]},
    {"compound": "N-[4-(Diethylamino)phenyl]-3-methyl-5-(4-methyl-1,2,3-thiadiazol-5-yl)isoxazole-4-carboxamide [Compound 47c]", "values": [
      {"measurement": "LDH.1µM", "value": -0.01},
      {"measurement": "LDH.3µM", "value": -0.17},
      {"measurement": "LDH.10µM", "value": 0.1},
      {"measurement": "LDH.30µM", "value": -0.11}
    ]},
    {"compound": "COc1ccc(-c2cc(NC(=O)c3ccc(C(C)(C)C)cc3)n[nH]2)cc1", "note": "[Compound 72]", "values": [
      {"measurement": "LDH.1µM", "value": 2.2},
      {"measurement": "LDH.3µM", "value": 0.82},
      {"measurement": "LDH.10µM", "value": 0.22},
      {"measurement": "LDH.30µM", "value": -0.27}
    ]},
    {"compound": "CCC(=O)N(Cc1ccc(N(CC)CC)cc1)c1c(-c2ccccc2)noc1C", "note": "[Compound 58]", "values": [
      {"measurement": "LDH.1µM", "value": 0.36},
      {"measurement": "LDH.3µM", "value": -0.8},
      {"measurement": "LDH.10µM", "value": -1.03},
      {"measurement": "LDH.30µM", "value": 1.47}
    ]}
  ]
}
